The results in this text go back to US5217956A, “Composition and treatment with biologically active peptides and certain anions” (priority 1991, dated 1993).

One experiment concerns E. cloacae. Briefly: Killing of E. cloacae: viable organisms on plating after incubation in TSB. The class given is cell-based, Enterobacter cloacae. As to conditions: for CFU / EOP (% viable): 15 min at 37° C. As to the method:
LEGEND: Organisms were incubated in a volume of 1 ml in either trypticase soy broth alone or containing substances noted for 15 min at 37° C. An aliquot was then diluted and plated to determine number of viable organisms.

In a further experiment the test system is Pseudomonas aeruginosa. Put plainly: Minimal inhibitory concentration in trypticase soy broth versus Pseudomonas aeruginosa. The class given is cell-based. As to the method:
(§1) Approximately 1,000 bacteria were seeded into about 200 ul of trypticase soy broth. Either magainin 2 carboxy terminal amide, PGLa, or ALSKALSK ALSKALSKALSKALSK (Z-44) were added in increasing concentrations in the absence (Panel A) or presence (Panel B) of 50 mM NaF.

The next experiment has as its system Enterobacter cloacae. The format is cell-based. Here is the method:
as §1

No end group written: not given here. Where only a bound is given, the exact number is not on record here.

Regarding `[F-].[Na+]` [NaF, sodium fluoride], in the experiment on E. cloacae (NaF 25 mM alone), the CFU is 10^7 and the “EOP (% viable)” value is 100%.

As for GIGKFLHSAKKFGKAFVGEIMNS-NH2 [MGN2], the figures for the “MINIMAL INHIBITORY CONCENTRATION” value in the experiment on Pseudomonas aeruginosa (Panel A: absence of NaF) and in the experiment on Pseudomonas aeruginosa (Panel B: +50 mM NaF) were 250 to 500 µg/mL and 60 to 125 µg/mL, respectively. Besides, the bacterial killing result in the experiment on E. cloacae (60 ug/ml MGN2 + 50 mM NaF, 10^7 E. cloacae in 1 ml TSB) is “all bacteria are killed”. For the same molecule, in the experiment with E. cloacae (60 ug/ml MGN2 with versus without NaF), the “potentiation of effective killing power by addition of fluoride” value is given as “over 1 million”. The CFU in the experiment on E. cloacae (peptide 60 ug/ml + NaF 25 mM) is listed as 0; in the experiment with E. cloacae (peptide 60 ug/ml, no NaF, 10^7 organisms in 1 ml TSB), “about 10^6”; in the experiment with E. cloacae (peptide 60 ug/ml, no NaF, 10^7 organisms in 1 ml TSB, listed as MGN2 (NH2)), 10^6. In addition, the “EOP (% viable)” value worked out at 0% in the experiment on E. cloacae (peptide 60 ug/ml + NaF 25 mM) and 90% in the experiment with E. cloacae (peptide 60 ug/ml, no NaF).

Regarding GMASKAGAIAGKIAKVALKAL-NH2 [PGLa], the “MINIMAL INHIBITORY CONCENTRATION” value in the experiment with Enterobacter cloacae is above 250 µg/mL.
